Assay results from paper PMC5218480 (PLoS ONE, 2017).

Test system: MV-4-11 cells
Experiment: Gene expression microarray analysis (Affymetrix PrimeView) and GSEA
Format: cell-based, human
Design: RFU PODN (11730768_x_at) / Fold change /veh PODN (11730768_x_at) / RFU LINC00158 (11744669_a_at) / Fold change /veh LINC00158 (11744669_a_at) / RFU DUSP10 (11751237_a_at) / Fold change /veh DUSP10 (11751237_a_at) / RFU ID3 (11757404_x_at) / Fold change /veh ID3 (11757404_x_at) / RFU PLEKHG5 (11737974_s_at) / Fold change /veh PLEKHG5 (11737974_s_at) / RFU LRRC4B (11730491_at) / Fold change /veh LRRC4B (11730491_at) / RFU GIMAP4 (11747438_a_at) / Fold change /veh GIMAP4 (11747438_a_at) / RFU KRT8 (11758183_x_at) / Fold change /veh KRT8 (11758183_x_at) / RFU CNN1 (11734310_a_at) / Fold change /veh CNN1 (11734310_a_at) / RFU VPS37D (11726825_at) / Fold change /veh VPS37D (11726825_at) / RFU C10orf10 (11716522_x_at) / Fold change /veh C10orf10 (11716522_x_at) / RFU KIR2DL2 /// KIR2DL4 /// KIR2DL5A /// KIR2DL5B /// KIR2DS1 /// KIR2DS2 /// KIR2DS3 /// KIR2DS4 /// KIR3DL3 /// KIR3DL3 /// KIR3DS1 (11738374_at) / Fold change /veh KIR2DL2 /// KIR2DL4 /// KIR2DL5A /// KIR2DL5B /// KIR2DS1 /// KIR2DS2 /// KIR2DS3 /// KIR2DS4 /// KIR3DL3 /// KIR3DL3 /// KIR3DS1 (11738374_at) / RFU C1QL1 (11718748_at) / Fold change /veh C1QL1 (11718748_at) / RFU TMPRSS4 (11747572_a_at) / Fold change /veh TMPRSS4 (11747572_a_at) / RFU HAMP (11756126_x_at) / Fold change /veh HAMP (11756126_x_at) / RFU RNFT2 (11725882_a_at) / Fold change /veh RNFT2 (11725882_a_at) / RFU NR4A2 (11747474_a_at) / Fold change /veh NR4A2 (11747474_a_at) / RFU ABCC12 (11746883_a_at) / Fold change /veh ABCC12 (11746883_a_at) / RFU TMEM136 (11760407_x_at) / Fold change /veh TMEM136 (11760407_x_at) / RFU CLDN22 /// WWC2 (11732394_at) / Fold change /veh CLDN22 /// WWC2 (11732394_at) / RFU HLA-DPB1 (11760878_x_at) / Fold change /veh HLA-DPB1 (11760878_x_at) / RFU SPINT1 (11716480_a_at) / Fold change /veh SPINT1 (11716480_a_at) / RFU GAP43 (11754022_s_at) / Fold change /veh GAP43 (11754022_s_at) / RFU A4GNT (11735810_at) / Fold change /veh A4GNT (11735810_at) / RFU PRB3 (11715151_x_at) / Fold change /veh PRB3 (11715151_x_at) / RFU TUBB4B (11761932_at) / Fold change /veh TUBB4B (11761932_at) / RFU CAPN14 (11732068_a_at) / Fold change /veh CAPN14 (11732068_a_at) / RFU TMCC2 (11721928_a_at) / Fold change /veh TMCC2 (11721928_a_at) / RFU IRGQ (11745062_a_at) / Fold change /veh IRGQ (11745062_a_at) / RFU FAM174B (11720279_a_at) / Fold change /veh FAM174B (11720279_a_at) / RFU TMPRSS4 (11748680_a_at) / Fold change /veh TMPRSS4 (11748680_a_at) / RFU FAM212B (11763350_a_at) / Fold change /veh FAM212B (11763350_a_at) / RFU PLEKHG5 (11743358_a_at) / Fold change /veh PLEKHG5 (11743358_a_at) / RFU ZSCAN30 (11745921_a_at) / Fold change /veh ZSCAN30 (11745921_a_at) / RFU CMKLR1 (11741424_a_at) / Fold change /veh CMKLR1 (11741424_a_at) / RFU LOC101060620 /// MAPK8IP1 (11723275_at) / Fold change /veh LOC101060620 /// MAPK8IP1 (11723275_at) / RFU SPTSSB (11747773_x_at) / Fold change /veh SPTSSB (11747773_x_at) / RFU PRSS12 (11739890_at) / Fold change /veh PRSS12 (11739890_at) / RFU BIN1 (11741810_x_at) / Fold change /veh BIN1 (11741810_x_at) / RFU WNT11 (11732464_a_at) / Fold change /veh WNT11 (11732464_a_at) / RFU C10orf10 (11716521_a_at) / Fold change /veh C10orf10 (11716521_a_at) / RFU C5orf56 (11738089_at) / Fold change /veh C5orf56 (11738089_at) / RFU CYB561 (11721691_x_at) / Fold change /veh CYB561 (11721691_x_at) / RFU ANKRD19P (11752326_a_at) / Fold change /veh ANKRD19P (11752326_a_at) / RFU OR2T12 /// OR2T33 /// OR2T8 (11738714_s_at) / Fold change /veh OR2T12 /// OR2T33 /// OR2T8 (11738714_s_at) / RFU VCAN (11748164_a_at) / Fold change /veh VCAN (11748164_a_at) / RFU JSRP1 (11732532_at) / Fold change /veh JSRP1 (11732532_at) / RFU KRTAP10-11 (11738290_x_at) / Fold change /veh KRTAP10-11 (11738290_x_at) / RFU MYO3A (11730013_a_at) / Fold change /veh MYO3A (11730013_a_at) / RFU EBF3 (11725865_a_at) / Fold change /veh EBF3 (11725865_a_at) / RFU CAMK2N1 (11719241_x_at) / Fold change /veh CAMK2N1 (11719241_x_at) / RFU C5orf56 (11738088_a_at) / Fold change /veh C5orf56 (11738088_a_at) / RFU OLFML3 (11715873_a_at) / Fold change /veh OLFML3 (11715873_a_at) / RFU LOC100653217 /// NTM (11731650_a_at) / Fold change /veh LOC100653217 /// NTM (11731650_a_at) / RFU MAPK11 (11762145_a_at) / Fold change /veh MAPK11 (11762145_a_at) / RFU FIZ1 (11724087_x_at) / Fold change /veh FIZ1 (11724087_x_at) / RFU OASL (11726364_x_at) / Fold change /veh OASL (11726364_x_at) / RFU SOX15 (11748057_x_at) / Fold change /veh SOX15 (11748057_x_at) / RFU CD79A (11719716_a_at) / Fold change /veh CD79A (11719716_a_at) / RFU HIST1H1D (11736915_at) / Fold change /veh HIST1H1D (11736915_at) / RFU CASKIN2 (11723855_a_at) / Fold change /veh CASKIN2 (11723855_a_at) / RFU LOC730098 (11760151_x_at) / Fold change /veh LOC730098 (11760151_x_at) / RFU OR4N2 (11742367_at) / Fold change /veh OR4N2 (11742367_at) / RFU PRRT2 (11749266_a_at) / Fold change /veh PRRT2 (11749266_a_at) / RFU SNX32 (11753110_a_at) / Fold change /veh SNX32 (11753110_a_at) / RFU CDHR5 (11726645_a_at) / Fold change /veh CDHR5 (11726645_a_at) / RFU RCAN1 (11760418_a_at) / Fold change /veh RCAN1 (11760418_a_at) / RFU FAM167A (11723789_a_at) / Fold change /veh FAM167A (11723789_a_at) / RFU FAM26E (11764081_at) / Fold change /veh FAM26E (11764081_at) / RFU ISYNA1 (11749810_s_at) / Fold change /veh ISYNA1 (11749810_s_at) / RFU ACY1 (11761880_at) / Fold change /veh ACY1 (11761880_at) / RFU 11764098_at / Fold change /veh 11764098_at / RFU SAMD14 (11745864_x_at) / Fold change /veh SAMD14 (11745864_x_at) / RFU NPB (11741838_a_at) / Fold change /veh NPB (11741838_a_at) / RFU TMPRSS6 (11731388_a_at) / Fold change /veh TMPRSS6 (11731388_a_at) / RFU KRTAP10-2 (11738614_at) / Fold change /veh KRTAP10-2 (11738614_at) / RFU ARHGAP8 /// PRR5-ARHGAP8 (11727945_x_at) / Fold change /veh ARHGAP8 /// PRR5-ARHGAP8 (11727945_x_at) / RFU KRTAP5-7 /// NADSYN1 (11734609_at) / Fold change /veh KRTAP5-7 /// NADSYN1 (11734609_at) / RFU RASL12 (11751679_a_at) / Fold change /veh RASL12 (11751679_a_at) / RFU CDKN2B (11736163_a_at) / Fold change /veh CDKN2B (11736163_a_at) / RFU PRF1 (11729649_at) / Fold change /veh PRF1 (11729649_at) / RFU, ZNF638 /// ZNF638-IT1 / Fold change vs veh, ZNF638 /// ZNF638-IT1 / RFU, PANK3 / Fold change vs veh, PANK3 / RFU, SH3YL1 / Fold change vs veh, SH3YL1 / RFU, ZEB2 / Fold change vs veh, ZEB2 / RFU, NRIP1 / Fold change vs veh, NRIP1 / RFU, PTTG1IP / Fold change vs veh, PTTG1IP / RFU, CAPN2 / Fold change vs veh, CAPN2 / RFU, MED14 / Fold change vs veh, MED14 / RFU, SNORA58 / Fold change vs veh, SNORA58 / RFU, C1orf63 / Fold change vs veh, C1orf63 / RFU, LRRFIP1 / Fold change vs veh, LRRFIP1 / RFU, NDUFAF7 / Fold change vs veh, NDUFAF7 / RFU, SLC12A2 / Fold change vs veh, SLC12A2 / RFU, IBTK / Fold change vs veh, IBTK / RFU, ESF1 / Fold change vs veh, ESF1 / Fold change vs veh, TMEM50B / RFU, TAOK1 / Fold change vs veh, TAOK1 / RFU, ACBD3 / Fold change vs veh, ACBD3 / RFU, TMA16 / Fold change vs veh, TMA16 / RFU, RWDD3 / Fold change vs veh, RWDD3 / RFU, BCAT1 / Fold change vs veh, BCAT1 / RFU, EDEM3 / Fold change vs veh, EDEM3 / RFU, TMEM33 / Fold change vs veh, TMEM33 / RFU, WDR75 / Fold change vs veh, WDR75 / RFU, AHCTF1 / Fold change vs veh, AHCTF1 / RFU, TFRC / Fold change vs veh, TFRC / RFU, ZDHHC17 / Fold change vs veh, ZDHHC17 / RFU, NOM1 / Fold change vs veh, NOM1 / RFU, ARL8B / Fold change vs veh, ARL8B / RFU, ZBTB11 / Fold change vs veh, ZBTB11 / RFU, TAMM41 / Fold change vs veh, TAMM41 / RFU, KIAA1704 /// LOC100996395 / Fold change vs veh, KIAA1704 /// LOC100996395 / RFU, ING1 / Fold change vs veh, ING1 / RFU, TRMT61B / Fold change vs veh, TRMT61B / RFU, FUBP3 / Fold change vs veh, FUBP3 / RFU, TP53 / Fold change vs veh, TP53 / RFU, TNKS2 / Fold change vs veh, TNKS2 / RFU, ZFP14 / Fold change vs veh, ZFP14 / RFU, ACTR2 / Fold change vs veh, ACTR2 / RFU, PPP3R1 / Fold change vs veh, PPP3R1 / RFU, PIK3R1 / Fold change vs veh, PIK3R1 / RFU, HNRNPA1 / Fold change vs veh, HNRNPA1 / RFU, RNF170 / Fold change vs veh, RNF170 / RFU, ZNF28 / Fold change vs veh, ZNF28 / RFU, RNGTT / Fold change vs veh, RNGTT / RFU, OGT / Fold change vs veh, OGT / RFU, BRD1 / Fold change vs veh, BRD1 / RFU, MARS / Fold change vs veh, MARS / RFU, ZNF655 / Fold change vs veh, ZNF655 / RFU, FAHD1 / Fold change vs veh, FAHD1 / RFU, BDP1 / Fold change vs veh, BDP1 / RFU, LRRCC1 / Fold change vs veh, LRRCC1 / RFU, ARID1A / Fold change vs veh, ARID1A / RFU, ZNF146 / Fold change vs veh, ZNF146 / RFU, ZNF330 / Fold change vs veh, ZNF330 / RFU, GPN3 / Fold change vs veh, GPN3 / RFU, C9orf123 / Fold change vs veh, C9orf123 / RFU, N4BP2L2 / Fold change vs veh, N4BP2L2 / RFU, ARFIP1 / Fold change vs veh, ARFIP1 / RFU, FAM179B / Fold change vs veh, FAM179B / RFU, BCL10 / Fold change vs veh, BCL10 / RFU, UHRF1BP1L / Fold change vs veh, UHRF1BP1L / RFU, BET1 / Fold change vs veh, BET1 / RFU, CNOT2 / Fold change vs veh, CNOT2 / RFU, ZNF268 / Fold change vs veh, ZNF268 / Fold change vs veh, ZNF507 / RFU, DGCR2 / Fold change vs veh, DGCR2 / RFU, WDSUB1 / Fold change vs veh, WDSUB1 / Fold change vs veh, HSP90B1 /// MIR3652 / RFU, ADSS / Fold change vs veh, ADSS / RFU, GK / Fold change vs veh, GK / RFU, ZNF148 / Fold change vs veh, ZNF148 / RFU, TAF9 / Fold change vs veh, TAF9 / RFU, SLC1A5 / Fold change vs veh, SLC1A5 / RFU, SLMO2 / Fold change vs veh, SLMO2 / RFU, ABCC4 / Fold change vs veh, ABCC4 / RFU, LOC101060439 /// RAP1B / Fold change vs veh, LOC101060439 /// RAP1B / RFU, RFX7 / Fold change vs veh, RFX7 / RFU, GTPBP10 / Fold change vs veh, GTPBP10 / RFU, CNEP1R1 / Fold change vs veh, CNEP1R1 / RFU, BIVM-ERCC5 /// ERCC5 / Fold change vs veh, BIVM-ERCC5 /// ERCC5 / RFU, ILF3 / Fold change vs veh, ILF3 / RFU 11762660_at / Fold change /veh 11762660_at / RFU VCAN (11757783_s_at) / Fold change /veh VCAN (11757783_s_at) / RFU DDX43 (11728927_at) / Fold change /veh DDX43 (11728927_at) / RFU KRT8 (11758188_x_at) / Fold change /veh KRT8 (11758188_x_at) / RFU NKD1 (11759106_at) / Fold change /veh NKD1 (11759106_at) / RFU SRD5A1 (11742802_a_at) / Fold change /veh SRD5A1 (11742802_a_at) / RFU TPSAB1 /// TPSB2 (11721975_s_at) / Fold change /veh TPSAB1 /// TPSB2 (11721975_s_at) / RFU GSTM3 (11746129_a_at) / Fold change /veh GSTM3 (11746129_a_at) / RFU IL23R (11737362_x_at) / Fold change /veh IL23R (11737362_x_at) / RFU TMEM51 (11727254_a_at) / Fold change /veh TMEM51 (11727254_a_at) / RFU PIWIL2 (11732686_x_at) / Fold change /veh PIWIL2 (11732686_x_at) / RFU ORM1 (11744905_x_at) / Fold change /veh ORM1 (11744905_x_at) / RFU CCDC152 (11743942_at) / Fold change /veh CCDC152 (11743942_at) / RFU ECM1 (11717891_a_at) / Fold change /veh ECM1 (11717891_a_at) / RFU IL23R (11748794_a_at) / Fold change /veh IL23R (11748794_a_at) / RFU TNFAIP8L3 (11732012_x_at) / Fold change /veh TNFAIP8L3 (11732012_x_at) / RFU MBOAT4 (11741988_at) / Fold change /veh MBOAT4 (11741988_at) / RFU 11764193_at / Fold change /veh 11764193_at / RFU TMEM53 (11763286_at) / Fold change /veh TMEM53 (11763286_at) / RFU MAGEB2 (11727129_at) / Fold change /veh MAGEB2 (11727129_at) / RFU TMEM200A (11744735_a_at) / Fold change /veh TMEM200A (11744735_a_at) / RFU CCDC152 (11751479_a_at) / Fold change /veh CCDC152 (11751479_a_at) / RFU FAM211A (11726209_a_at) / Fold change /veh FAM211A (11726209_a_at) / RFU RGS16 (11746705_a_at) / Fold change /veh RGS16 (11746705_a_at) / RFU VCAN (11755009_s_at) / Fold change /veh VCAN (11755009_s_at) / RFU RHOB (11743442_s_at) / Fold change /veh RHOB (11743442_s_at) / RFU RGS16 (11720943_a_at) / Fold change /veh RGS16 (11720943_a_at) / RFU RGS16 (11720944_at) / Fold change /veh RGS16 (11720944_at) / RFU, VPS4B / Fold change vs veh, VPS4B / RFU, CREB1 / Fold change vs veh, CREB1 / RFU, DNAJC13 / Fold change vs veh, DNAJC13 / RFU, GNAQ / Fold change vs veh, GNAQ / RFU, CDK5R1 / Fold change vs veh, CDK5R1 / RFU, ZRANB3 / Fold change vs veh, ZRANB3 / RFU, CUL4A / Fold change vs veh, CUL4A / RFU, CCNY / Fold change vs veh, CCNY / RFU, UFL1 / Fold change vs veh, UFL1 / RFU, COG3 / Fold change vs veh, COG3 / RFU, DIAPH2 / Fold change vs veh, DIAPH2 / RFU, SKA2 / Fold change vs veh, SKA2 / RFU, AFF3 / Fold change vs veh, AFF3 / RFU, LMF1 / Fold change vs veh, LMF1 / RFU, IPO11 / Fold change vs veh, IPO11 / RFU, DFFB / Fold change vs veh, DFFB / RFU, FOXP1 / Fold change vs veh, FOXP1 / RFU, CARD8 / Fold change vs veh, CARD8 / RFU, STRN3 / Fold change vs veh, STRN3 / RFU, ADK / Fold change vs veh, ADK / RFU, RASSF2 / Fold change vs veh, RASSF2 / RFU, WIPF1 / Fold change vs veh, WIPF1 / RFU, LARP1B / Fold change vs veh, LARP1B / RFU, RASA1 / Fold change vs veh, RASA1 / RFU, RB1 / Fold change vs veh, RB1 / RFU, PPFIA1 / Fold change vs veh, PPFIA1 / RFU, MAT2A / Fold change vs veh, MAT2A / RFU, CCT5 / Fold change vs veh, CCT5 / RFU, WDR92 / Fold change vs veh, WDR92 / RFU, CUX1 / Fold change vs veh, CUX1 / RFU, TTC7A / Fold change vs veh, TTC7A / RFU, TMEM135 / Fold change vs veh, TMEM135 / RFU, DEPTOR / Fold change vs veh, DEPTOR / RFU, CPM / Fold change vs veh, CPM / RFU, DNAJB6 / Fold change vs veh, DNAJB6 / RFU, CACNA2D3 / Fold change vs veh, CACNA2D3 / RFU, DTX4 / Fold change vs veh, DTX4 / RFU, TFCP2 / Fold change vs veh, TFCP2 / RFU, GMCL1 /// GMCL1P1 / Fold change vs veh, GMCL1 /// GMCL1P1 / RFU, AEBP2 / Fold change vs veh, AEBP2 / RFU, SNHG1 /// SNORD22 /// SNORD25 /// SNORD26 /// SNORD27 /// SNORD28 /// SNORD29 /// SNORD31 / Fold change vs veh, SNHG1 /// SNORD22 /// SNORD25 /// SNORD26 /// SNORD27 /// SNORD28 /// SNORD29 /// SNORD31 / Fold change (Aza/veh), C12orf56 (ProbeSet 11735607_a_at) / Fold change (ACY-1035/veh), C12orf56 (ProbeSet 11735607_a_at) / Fold change (Aza/veh), FGFR1OP (ProbeSet 11751329_s_at) / Fold change (ACY-1035/veh), FGFR1OP (ProbeSet 11751329_s_at) / Fold change (Aza/veh), VPS36 (ProbeSet 11739960_a_at) / Fold change (ACY-1035/veh), VPS36 (ProbeSet 11739960_a_at) / RFU SYPL1 (11715823_x_at) / Fold change /veh SYPL1 (11715823_x_at) / RFU IGFBP7 (11715501_s_at) / Fold change /veh IGFBP7 (11715501_s_at) / RFU REEP3 (11722064_at) / Fold change /veh REEP3 (11722064_at) / RFU IGLL1 (11728026_x_at) / Fold change /veh IGLL1 (11728026_x_at): dose or concentration left out as unconfirmed
Conditions: ProbeSet 11721559_s_at; LIST B

Q: Which “RFU, ZNF638 /// ZNF638-IT1” value does the source give for Nc1ccc(-c2cccs2)cc1NC(=O)c1ccc2c(c1)cc(C1CC1)n2CCN1CCOCC1 [ACY-1035] here?
A: 322.16 RFU
